Measurements taken from patent US7202242B2, “Substituted 1 and 2-naphthol Mannich bases” (Gruenenthal GmbH, priority 1999, dated 2007).

These molecules were tested on phenylquinone-induced writhing (assay: Analgesia test in the phenylquinone-induced writhing test in mice). Details: male NMRI mice; 10 mg/kg intravenous, 10 minutes before phenylquinone i.p.; writhing counted 5–20 minutes after phenylquinone.
Assay type: in vivo
Procedure: The in-depth investigation for analgesic activity was carried out in the phenylquinone-induced writhing in mice (modified by I. C. Hendershot, J. Forsaith, J. Pharmacol. Exp. Ther. 125, 237–240 (1959)). Male NMRI mice weighing 25–30 g were used for this. Groups of 10 animals per substance dose received 0.3 ml/mouse of a 0.02% aqueous solution of phenylquinone (phenylbenzoquinone, Sigma, Deisenhofen; preparation of the solution with the addition of 5% ethanol and storage in a water bath at 45° C.) administered intraperitoneally 10 minutes after intravenous administration of the test substances. The animals were placed individually in observation cages. The number of pain-induced stretching movements (so-called writhing reactions=straightening of the body with stretching of the hind extremities) were counted by means of a push-button counter for 5–20 minutes after the administration of phenylquinone. Animals which received only physiological saline solution were also run as a control.
The substances were tested in the standard dose of 10 mg/kg. The inhibition of the writhing reactions by a substance was calculated according to the following equation: […]
The in-depth investigation for analgesic activity was carried out in the phenylquinone-induced writhing in mice as described above.

SMILES | Inhibition of the writhing reaction in %
COc1ccc(C(=O)Oc2ccc3ccccc3c2C(c2ccccc2)N(C)C)cc1 (stereo not drawn) [Example 39, 4-Methoxybenzoic acid 1-(dimethylaminophenylmethyl)-naphthalen-2-yl ester] | 21%
Oc1ccc2ccccc2c1C(c1ccccc1)N1CCCCC1 (stereo not drawn) [Example 42, 1-(Phenylpiperidin-1-yl-methyl)-naphthalen-2-ol] | 92%
COc1ccc(COc2ccc3ccccc3c2C(c2ccccc2)N(C)C)cc1 (stereo not drawn) [Example 38, {[2-(4-Methoxybenzyloxy)-naphthalen-1-yl]-phenylmethyl}-dimethylamine] | 81%
CN(C)C(c1ccccc1)c1c(OC(=O)c2ccccc2Cl)ccc2ccccc12 (stereo not drawn) [Example 40, 2-Chlorobenzoic acid 1-(dimethylaminophenylmethyl)-naphthalen-2-yl ester] | 48%
Oc1ccc2ccccc2c1C(c1ccccc1)N1CCOCC1 (stereo not drawn) [Example 41, 1-(Morpholin-4-yl-phenylmethyl]-naphthalen-2-ol] | 30%
COc1ccc(COc2c(C(c3ccccc3)N(C)C)ccc3ccccc23)cc1 (stereo not drawn) [Example 37, {[1-(4-Methoxy-benzyloxy)-naphthalen-2-yl]-phenylmethyl}-dimethylamine] | 40%
